The values that follow come from paper PMC3124361 (Journal of medicinal chemistry, 2011).

In brackets after ≈: the same amount, converted by molar mass.

Data set [1] addresses T1, PfDHODH (Plasmodium falciparum, UniProt Q08210).
T1 sequence (Q08210 158-569 limits assumed): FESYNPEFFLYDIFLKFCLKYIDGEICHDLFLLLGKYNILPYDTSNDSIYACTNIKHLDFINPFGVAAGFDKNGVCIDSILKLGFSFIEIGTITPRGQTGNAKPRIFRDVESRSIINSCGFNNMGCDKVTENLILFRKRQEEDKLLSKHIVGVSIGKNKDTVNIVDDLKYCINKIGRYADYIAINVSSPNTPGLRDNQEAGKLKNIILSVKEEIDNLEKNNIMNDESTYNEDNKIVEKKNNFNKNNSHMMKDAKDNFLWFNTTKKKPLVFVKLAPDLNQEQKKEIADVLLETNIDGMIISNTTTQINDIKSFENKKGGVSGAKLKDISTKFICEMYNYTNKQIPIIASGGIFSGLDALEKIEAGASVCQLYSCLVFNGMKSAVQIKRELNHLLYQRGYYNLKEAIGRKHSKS
The data set is described as follows: PfDHODH DCIP dye-based enzyme assay. Format: biochemical. The following applies: for IC50: IC50 PfDHODH.

The nature of data set [2]: In vitro metabolism in mouse liver microsomes. Format: in vitro ADME. The settings on record: for microsomal CLint at 1 μM: microsomes, pH 7.4; for Eh Mouse: predicted hepatic extraction ratio.
A short description of data set [3]: Non-equilibrium solubility by nephelometry, pH 6.5. Format: physicochemical. The following applies: for solubility: phosphate buffer.
In data set [4] the target is human albumin (Homo sapiens, UniProt P02768). The experiment in a line: Protein binding estimated on human albumin column. The following applies: human albumin chromatographic method. Format: in vitro ADME.
human albumin, sequence (P02768 25-609): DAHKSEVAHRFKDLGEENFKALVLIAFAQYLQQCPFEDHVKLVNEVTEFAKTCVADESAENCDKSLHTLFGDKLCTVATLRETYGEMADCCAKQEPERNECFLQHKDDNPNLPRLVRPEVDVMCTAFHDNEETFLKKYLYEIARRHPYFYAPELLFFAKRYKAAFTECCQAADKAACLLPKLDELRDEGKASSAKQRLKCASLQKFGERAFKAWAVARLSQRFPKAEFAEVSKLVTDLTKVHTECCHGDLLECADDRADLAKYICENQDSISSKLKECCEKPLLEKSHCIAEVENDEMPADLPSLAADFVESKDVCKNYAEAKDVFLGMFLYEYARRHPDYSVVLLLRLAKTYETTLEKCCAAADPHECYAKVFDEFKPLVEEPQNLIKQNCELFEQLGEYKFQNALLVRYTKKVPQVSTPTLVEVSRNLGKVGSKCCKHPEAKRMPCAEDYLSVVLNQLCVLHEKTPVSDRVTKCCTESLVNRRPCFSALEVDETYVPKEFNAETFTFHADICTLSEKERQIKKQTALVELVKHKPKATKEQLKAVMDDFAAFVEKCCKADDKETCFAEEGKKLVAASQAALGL
A short description of data set [5]: In vitro metabolism in human liver microsomes. The class given is in vitro ADME. The following applies: for microsomal CLint at 1 μM: microsomes, pH 7.4; for Eh Human: predicted hepatic extraction ratio.

Usually IC50 stands for the concentration that inhibits the measured activity by half. A high value points to a need for much substance. The term microsomal CLint denotes a measure of how fast metabolising enzymes remove a compound, apart from limits set by blood flow. A lower microsomal CLint goes with slow turnover. Usually solubility stands for the concentration that dissolves in the medium under given conditions. A low value points to a poorly soluble substance.

Regarding `Cc1cc(NC2CCCC2)n2ncnc2n1` [Compound 40, N-Cyclopentyl-5-methyl-[1,2,4]triazolo[1,5-a]pyrimidin-7-amine], the IC50 in data set [1] was > 100 µM.

Consider `Cc1cc(NOc2ccccc2)n2ncnc2n1` [Compound 52, N-(5-Methyl-[1,2,4]triazolo[1,5-a]pyrimidin-7-yl)-O-phenylhydroxylamine], for which, in data set [1], the “activity against PfDHODH (in words)” value is “inactive” and the IC50 was > 100 µM.

Regarding `CCCCCCCCc1ccc(Nc2cc(C)nc3ncnn23)cc1` [Compound 13, N-(4-Octylphenyl)-5-methyl-[1,2,4]triazolo[1,5-a]pyrimidin-7-amine], the IC50 in data set [1] was > 50 µM.

In the case of `Cc1cc(NCc2ccc(C(F)(F)F)cc2)n2ncnc2n1` [Compound 55], in data set [1], the “activity against PfDHODH (in words)” value is “inactive” and the IC50 was > 100 µM.

For `Cc1cc(Nc2ccc(SC(F)(F)F)cc2)n2ncnc2n1` [Compound 20, 5-Methyl-N-(4-(trifuoromethylthio)phenyl)-[1,2,4]triazolo[1,5-a]pyrimidin-7-amine], in data set [2], the microsomal CLint at 1 μM is > 25 µL/min/mg and the “Eh Mouse” value was 0.84. Also, in data set [3], the “aqueous solubility at pH 6.5 (in words)” value is “poorly soluble” and the solubility is 5 to 10 µM (≈ 1.63 to 3.25 µg/mL). Besides, the “Human Plasma Binding” value in data set [4] was 96.1%. In data set [5], the microsomal CLint at 1 μM was < 10 µL/min/mg and the “Eh Human” value is < 0.2.

`Cc1cc(Nc2ccc(N3CCOCC3)cc2)n2ncnc2n1` [Compound 25, N-(4-Morpholinophenyl)-5-methyl-[1,2,4]triazolo[1,5-a]pyrimidin-7-amine]: in data set [1], the IC50 was > 100 µM.

Consider `Cc1cc(NC2CC2)n2ncnc2n1` [Compound 38, N-Cyclopropyl-5-methyl-[1,2,4]triazolo[1,5-a]pyrimidin-7-amine], for which the IC50 in data set [1] was > 100 µM.

On to `C#Cc1ccc(Nc2cc(C)nc3ncnn23)cc1` [Compound 18, N-(4-Ethynylphenyl)-5-methyl-[1,2,4]triazolo[1,5-a]pyrimidin-7-amine], for which, in data set [2], the microsomal CLint at 1 μM was > 25 µL/min/mg and the “Eh Mouse” value was 0.54. The molecule further registered a solubility in data set [3] of 100 to 200 µM (≈ 24.9 to 49.9 µg/mL). In data set [4], the “Human Plasma Binding” value is listed as 81.8%. For the same molecule, in data set [5], the microsomal CLint at 1 μM is < 10 µL/min/mg and the “Eh Human” value is on record as 0.31.

`CCCCc1ccc(Nc2cc(C)nc3ncnn23)cc1` [Compound 9, N-(4-Butylphenyl)-5-methyl-[1,2,4]triazolo[1,5-a]pyrimidin-7-amine]: in data set [3], the “aqueous solubility at pH 6.5 (in words)” value was “poorly soluble” and the solubility fell in the range of 11 to 22 µM (≈ 3.09 to 6.19 µg/mL). Also, in data set [4], the “Human Plasma Binding” value was 96.7%. The “Eh Human” value in data set [5] is recorded as 0.67/ND.

In the case of `CCCc1c(C)nc2ncnn2c1Nc1ccc(C)cc1` [Compound 64], in data set [1], the “activity against PfDHODH (in words)” value was “complete loss in activity” and the IC50 is > 100 µM.

As for `FC(F)(F)c1ccc(Nc2cc(Cl)nc3ncnn23)cc1` [Compound 61], the “fold better activity (lower IC50) against PfDHODH than 2” value in data set [1] (comparator 2) is 2 fold.

As to `Cc1cc(NC2CCC2)n2ncnc2n1` [Compound 39, N-Cyclobutyl-5-methyl-[1,2,4]triazolo[1,5-a]pyrimidin-7-amine], in data set [1], the IC50 was > 100 µM.

In the case of `Cc1cc(NCCCc2ccccc2)n2ncnc2n1` [Compound 57], the “activity against PfDHODH (in words)” value in data set [1] was “mid-micromolar range activity”.

In the case of `C=Cc1ccc(Nc2cc(C)nc3ncnn23)cc1` [Compound 17, N-(4-Vinylphenyl)-5-methyl-[1,2,4]triazolo[1,5-a]pyrimidin-7-amine], in data set [2], the “Eh Mouse” value is on record as 0.88. The molecule also yielded a solubility in data set [3] of 25 to 50 µM (≈ 6.28 to 12.6 µg/mL). The “Human Plasma Binding” value in data set [4] is on record as 84.4%. For the same molecule, in data set [5], the “Eh Human” value is recorded as 0.64.

Regarding `Cc1cc(Nc2ccc(Cl)c(F)c2)n2ncnc2n1` [Compound 30, N-(4-Chloro-3-fluorophenyl)-5-methyl-[1,2,4]triazolo[1,5-a]pyrimidin-7-amine], the “fold decrease in PfDHODH IC50 over the 4-Cl alone” value in data set [1] (comparator 4-Cl-Ph (DSM89)) was found to be 3 fold.

In the case of `Cc1cc(NCc2ccc(F)cc2)n2ncnc2n1` [Compound 54], in data set [1], the “activity against PfDHODH (in words)” value was “inactive” and the IC50 is > 100 µM.

As for `Cc1cc(NC2CCCCCCC2)n2ncnc2n1` [Compound 43, N-Cyclooctyl-5-methyl-[1,2,4]triazolo[1,5-a]pyrimidin-7-amine], the IC50 in data set [1] was > 100 µM.

Turning to `CCc1cc(Nc2ccc(C(F)(F)F)cc2)n2ncnc2n1` [Compound 59, 5-Ethyl-N-(4-trifluoromethyl)phenyl-[1,2,4]triazolo[1,5-a]pyrimidin-7-amine], the “fold reduction in PfDHODH inhibitory activity versus 2” value in data set [1] (comparator 2) is 2 fold.

`FC(F)(F)c1ccc(Nc2cc(C(F)(F)F)nc3ncnn23)cc1` [Compound 60]: the “fold reduction in PfDHODH inhibitory activity versus 2” value in data set [1] (comparator 2) came out at 4 fold.

On to `Cc1cc(NC2CCc3ccccc3C2)n2ncnc2n1` (stereo not shown) [Compound 49, 5-Methyl-N-(1,2,3,4-tetrahydronaphthalen-2-yl)-[1,2,4]triazolo[1,5-a]pyrimidin-7-amine], for which, in data set [2], the microsomal CLint at 1 μM was > 25 µL/min/mg and the “Eh Mouse” value is 0.61. Also, in data set [3], the “aqueous solubility at pH 6.5 (in words)” value was “highly soluble”. In data set [5], the microsomal CLint at 1 μM was < 10 µL/min/mg and the “Eh Human” value is recorded as < 0.2.

`Cc1cc(Nc2ccc(NC(C)(C)C)cc2)n2ncnc2n1` [Compound 26, N^1-tert-Butyl-N^4(5-methyl-[1,2,4]triazolo[1,5-a]pyrimidin-7-yl)benzene-1,4-diamine]: the IC50 in data set [1] was > 50 µM.

Turning to `Cc1cc(NCc2ccccc2)n2ncnc2n1` [Compound 53], in data set [1], the IC50 is > 100 µM.

For `CCCc1ccc(Nc2cc(C)nc3ncnn23)cc1` [Compound 8, N-(4-Propylphenyl)-5-methyl-[1,2,4]triazolo[1,5-a]pyrimidin-7-amine], in data set [3], the “aqueous solubility at pH 6.5 (in words)” value is “highly soluble” and the solubility lay in the range of 187 to 374 µM (≈ 50 to 100 µg/mL). Further, the “Human Plasma Binding” value in data set [4] is 93.5%. The “Eh Human” value in data set [5] is 0.66/ND.

`Cc1cc(NCCc2ccccc2)n2ncnc2n1` [Compound 56, 5-Methyl-N-phenethyl-[1,2,4]triazolo[1,5-a]pyrimidin-7-amine]: in data set [1], the “activity against PfDHODH (in words)” value is given as “mid-micromolar range activity”.

In the case of `Cc1cc(Nc2ccc3c(c2)OCO3)n2ncnc2n1` [Compound 35, N-(Benzo[d][1,3]dioxol-5yl)-5-methyl-[1,2,4]triazolo[1,5-a]pyrimidin-7-amine], in data set [3], the “aqueous solubility at pH 6.5 (in words)” value is “highly soluble” and the solubility lay within 186 to 372 µM (≈ 50.1 to 100 µg/mL). Moreover, the “Eh Human” value in data set [5] is reported as 0.37/ND.

With `Cc1cc(NC2CCCCCC2)n2ncnc2n1` [Compound 42, N-Cycloheptyl-5-methyl-[1,2,4]triazolo[1,5-a]pyrimidin-7-amine], the IC50 in data set [1] is > 100 µM.

On to `Cc1cc(NC2CCCCC2)n2ncnc2n1` [Compound 41, N-Cyclohexyl-5-methyl-[1,2,4]triazolo[1,5-a]pyrimidin-7-amine], for which, in data set [1], the IC50 was > 100 µM.

In turn, `CCc1ccc(Nc2cc(C)nc3ncnn23)cc1` [Compound 7, N-(4-Ethylphenyl)-5-methyl-[1,2,4]triazolo[1,5-a]pyrimidin-7-amine] had a solubility in data set [3] of 25 to 50 µM (≈ 6.33 to 12.7 µg/mL). Further, the “Human Plasma Binding” value in data set [4] was 88.0%. Further, the “Eh Human” value in data set [5] was 0.77/ND.

For `Cc1cc(Nc2ccc(N(C)C)cc2)n2ncnc2n1` [Compound 23, N^1,N^1-Dimethyl-N^4-(5-methyl-[1,2,4]triazolo[1,5-a]pyrimidin-7-yl)benzene-1,4-diamine], the “Eh Mouse” value in data set [2] is given as 0.91. The molecule further displayed a solubility in data set [3] of 93 to 186 µM (≈ 25 to 49.9 µg/mL). Further, the “fold less potent / increase of PfDHODH IC50 over 14” value in data set [1] (comparator 14) was found to be 4 fold. In addition, in data set [5], the “Eh Human” value is reported as 0.4.
